Like-named read-outs stand apart in the source and are kept apart here.
Columns and labels:
[1] = test system: MPO; experiment: Study DG-031-201: ionomycin-induced MPO release in whole blood ex vivo; set-up: species or system human; details: difference visit 2 to 5; 500 and 750 mg/day vs placebo
Description: Genet. 2004). Apart from FLAP, allele A of the SNP SG12S25 in the LTA4 hydrolase gene, another gene in the LT pathway, is also associated with MI, as described in PCT application no. PCT/US03/32556 and PCT/US04/30582 incorporated by reference.
Patients who met the study eligibility criteria were enrolled and randomized into 3 different dose-level groups: (1) 64 patients on 250 mg/day therapy with DG-031 (250 mg q.d.), vs placebo; (2) 64 patients on 500 mg/day therapy with DG-031 (250 mg b.i.d.) vs placebo; and (3) 63 patients on 750 mg/day therapy with DG-031 (250 mg t.i.d.) vs placebo. […] All patients received 3 tablets per day. Treatment periods, 4 weeks in duration each, were separated by a 2-week washout period. The placebo tablets were identical in shape, color, form and taste to the active tablets except that they contained no active drug ingredients. Treatment with DG-031 or placebo was in addition to the subject's standard care, including all medications and treatment plan as prescribed by the subject's cardiologist prior to enrolment. […]
All data were analyzed according to a pre-established statistical analysis plan (SAP) and by intention-to-treat (ITT). […] The difference between DG-031 and placebo treatment was the primary outcome, assessed separately for each of the biomarkers. […]

[2] = test system: MPO; experiment: Study DG-031-204: MPO in ionomycin-stimulated whole blood; format: in vivo, human; details: for Stimulated MPO from whole blood (% change from baseline, whole blood, WBC corrected, 60 minute), mean response: after 4 weeks of DG-031 administration
Description: (§1) An additional single site, open label study was carried out to obtain biomarker and safety data on additional DG-031 doses (i.e., 1000 mg and 1500 mg). This study examined the safety, tolerability and dose-related effects of DG-031 on inflammatory biomarkers including: LTB4, hsCRP, and MPO. A total of 119 patients with a prior history of CAD and MI were randomized to receive either 1000 mg DG-031 (500 mg BID) or 1500 mg DG-031 (500 mg TID) daily for 4-6 weeks. Treatment with DG-031 in addition to the subject's standard care, medication, and treatment, was prescribed by the patient's cardiologist. A majority of the subjects received statin therapy before, during and after the study. Follow-up assessments were performed 2 weeks after the end of study drug administration.
(§2) The biomarkers were analyzed as described in Example 1. Statistical analysis of the data was carried out using a one-sample t-test on change from baseline with a two-sided nominal significance level of 0.050. Biomarker concentrations were log-transformed and a simple last observation carried forward (LOCF) scheme was used to impute missing observations.
Plasma MPO concentration was measured weekly. MPO measurements in ionomycin-stimulated whole blood were also measured in a subset of patients at 4 weeks.

[3] = test system: Prostaglandin F; experiment: Study DG-031-204: Prostaglandin F (PGF); format: in vivo, human; details: after 4 weeks of treatment
Description: as §1, §2
Prostaglandin F (PGF) was measured at 2-week intervals.

[4] = test system: LDL-C; experiment: Study DG-031-204: LDL-C; format: in vivo, human; details: for LDL-C increase, mean change from baseline: after 4 weeks
Description: as §1, §2
LDL-C was measured weekly after administration of DG-031 500 mg BID or 500 mg TID. The mean change from baseline after 4 weeks of treatment was an increase of 9% (p=0.004; n=52) for 500 mg BID and an increase of 9% (p<0.001; n=58) for the 500 TID group. […] The LDL-C effect appeared to increase over time and tended toward baseline values at the 2-week follow up visit. A preliminary exposure-response analysis of data from studies DG-031-201, DG-031-203, and DG-031-204 supported a dose related increase in LDL-C.

[5] = Study DG-031-204: steady state DG-031 plasma concentrations; format: in vivo, human; details: for concentration at 0 h / concentration at 0.5 h / concentration at 1 h / concentration at 2 h / concentration at 4 h / concentration at 6 h: human, plasma, oral, 500 mg, read-out: Steady state DG-031 exposure, Geometric Mean; for concentration at 0 h: 0 hr post dose; for concentration at 0.5 h: 0.5 hr post dose; for concentration at 1 h: 1 hr post dose; for concentration at 2 h: 2 hr post dose; for concentration at 4 h: 4 hr post dose; for concentration at 6 h: 6 hr post dose
Description: Blood samples were collected for determining DG-031 concentrations in a subset of patients (n=22). Samples were collected just prior to dosing and at 0.5, 1, 2, 4, and 6 hours following administration of DG-031 500 mg BID or TID.

O=C(O)[C@@H](c1ccc(OCc2ccc3ccccc3n2)cc1)C1CCCC1 [DG-031, (R)-(+)-alpha-cyclopentyl-4-(2-quinolinylmethoxy)-Benzeneacetic acid]
Carry-over effect, MPO in whole blood, corr. for wbc [1]: 0.01 | Stimulated whole blood MPO concentrations ([2]; 500 mg BID or TID, 4 weeks): decreased | Stimulated MPO from whole blood (% change from baseline, whole blood, WBC corrected, 60 minute), mean response ([2]; 1000 mg (500 mg BID)): −19% | Stimulated MPO from whole blood (% change from baseline, whole blood, WBC corrected, 60 minute), mean response ([2]; 1500 mg (500 mg TID)): −29% | Trends in PGF [3]: No significant trends | LDL-C increase, mean change from baseline ([4]; 500 mg BID): 9% | LDL-C increase, mean change from baseline ([4]; 500 mg TID): 9% | LDL-C percent change from baseline after 4 weeks of DG-031 administration, Mean ([4]; dose 250): 2.3% | LDL-C percent change from baseline after 4 weeks of DG-031 administration, Mean ([4]; dose 500): 5.0% | LDL-C percent change from baseline after 4 weeks of DG-031 administration, Mean ([4]; dose 750): 7.7% | LDL-C percent change from baseline after 4 weeks of DG-031 administration, Mean ([4]; dose 1000): 10.3% | LDL-C percent change from baseline after 4 weeks of DG-031 administration, Mean ([4]; dose 1250): 13.0% | LDL-C percent change from baseline after 4 weeks of DG-031 administration, Mean ([4]; dose 1500): 15.7% | DG-031 concentrations observed ([5]; 500 mg BID or TID, subset n=22): up to 20.3 μg/mL | Mean trough concentration ([5]; 500 mg BID, steady state): 4.3 µg/mL | Observed mean peak concentration ([5]; 500 mg BID, steady state): 8.8 µg/mL | Observed peak to trough fluctuation ([5]; 12 hour period, BID dosing regimen): 2-3 fold | concentration at 0 h ([5]; 500 mg BID): 4300 ng/mL | concentration at 0.5 h ([5]; 500 mg BID): 4700 ng/mL | concentration at 1 h ([5]; 500 mg BID): 6100 ng/mL | concentration at 2 h ([5]; 500 mg BID): 8600 ng/mL | concentration at 4 h ([5]; 500 mg BID): 8800 ng/mL | concentration at 6 h ([5]; 500 mg BID): 7000 ng/mL | concentration at 0 h ([5]; 500 mg TID): 6900 ng/mL | concentration at 0.5 h ([5]; 500 mg TID): 6800 ng/mL | concentration at 1 h ([5]; 500 mg TID): 8500 ng/mL | concentration at 2 h ([5]; 500 mg TID): 10100 ng/mL | concentration at 4 h ([5]; 500 mg TID): 10000 ng/mL | concentration at 6 h ([5]; 500 mg TID): 7400 ng/mL

— US20090030037A1, “Sustained Release Formulation and Dosing Schedules of Leukotriene Synthesis Inhibitor for Human Therapy” (deCODE Genetics ehf., priority 2005, published 2009)
